The results in this text go back to patent publication US8247227B2, “Dendritic cell precursors” (The Cleveland Clinic Foundation, priority 2006, dated 2012).

The test system of experiment [1] is Flt3L+IL6 conditioned BM cells. Description: Immunosuppressive factors added to Step 2 culture: DC1 polarization. It is filed as cell-based, mouse. Particulars: factor added in Step 2, TLR agonist-induced. The method, then:
FIG. 7A is a histogram showing Step 2 cultures (cells were re-plated in GMCSF and IL-4 at 0 hr, CpG+LPS added at 24 hr, FACS performed at 44 hr), except that listed immunosuppressive factors were added at 0 hr, 1 hr, 2 hr, or 4 hr of Step 2 culture, and supernatants analyzed by ELISA in triplicate for IL-12 p70 content at 44 hr of Step 2 culture. Error bars indicate s.d. This is representative of three experiments;
We investigated whether Flt3L+IL6 proliferative conditioning conferred uniform responsiveness to DC1 polarization stimuli even in the presence of putative immunosuppressive factors. We added IL10, TGFβ1 VEGF, or PGE2 at doses which equaled and exceeded those reported to inhibit the maturation of other DC preparations (Kao, J Y et al. J. Immunol. 170, 3806-3811 (2003); Kobie, J J et al. Cancer Res. 63, 1860-1864 (2003); Gabrilovich, D. et al. Blood 92, 4150-4166 (1998); Dikov, M M et al. J. Immunol. 174, 215-222 (2005); Shurin, M R et al. Int. J. Cancer 101, 61-68 (2002); Yang, A S et al. Cancer Res. 63, 2150-2157 (2003); Kalinski, P. et al. J. Immunol. 161, 2804-2809 (1998)).
(§1) Step 2 was initiated (0 hr) in CM, rmGMCSF and optionally rmIL4. Step 2 cultures were performed in 24 well cluster plates, 4 million BM cells per well in 2 ml CM. DC1 polarization stimuli such as CpG (ODN 1826, 5 μM) and LPS 50 ng/ml were added between 18-24 hrs, and cells harvested at 40-44 hrs for analyses. When included, immunosuppressive agents rmIL10, rmVEGF, rhTGFβ1 or PGE2 were added between 0 and 24 hrs of Step 2 culture at doses specified in Results. Alternatively, particulate tumor cells, either viable unirradiated, viable irradiated (10,000 cGy), or killed freeze-thawed lysate (Cohen, P A et al. Cancer Res. 54, 1055-1058 (1994)), were added to Step 2 BM cells. Viable tumor cells were sometimes labelled with CFSE (Molecular Probes, Eugene, Oreg.) to allow their identification and exclusion during subsequent FACS analyses (Peng, L. et al. J. Immunol. 169, 4811-4821 (2002)).

For the next experiment, the system named is L-selectin^low T cells. Description: T cell co-cultures with variously conditioned DCs. It is filed as cell-based, mouse. Particulars: DCs from other conditioning treatments.
Experiment [2] relates to CD34^pos stem cell subpopulation. Briefly: Step 1 proliferative culture of fresh bone marrow: numeric expansion. Particulars: for superimposed proliferative impacts: added to Step 1 culture; for effectiveness as alternative Step 1 factor: rhIL6 100 ng/ml instead of mIL6, rSCF instead of mSCF. The experiment is classed as cell-based, mouse. As for the experimental part: FIG. 6 is a chart showing numeric expansion resulting from the exposure of bone marrow (BM) suspensions to various factors. BM freshly harvested from C57BL/6 mice was cultured for 6 days in the specific factors, then harvested and counted. Each bar represents 3-11 determinations±s.d., each performed in synchronous comparison to at least five other groups. […] Synergistic expansions reflected a 35-80 fold selective outgrowth of the CD34^pos subpopulation (see FIG. 10);
FIG. 10 is a histogram showing gross numeric expansion of fresh bone marrow (BM) reflective of selective outgrowth of the CD34^pos subpopulation. Freshly prepared mouse BM cell suspensions were stained with FITC-anti-CD34 mAb to enable isolation of CD34^pos and CD34^neg subpopulations by a FACSAria cell sorter. CD34^pos cells initially represented 10.8±7% of the total BM cells. The following groups were then cultured for 6 days in 75 cm^2 flasks, either in Flt3L+SCF+IL6 (striped bars) or in Flt3L+IL6 (solid bars): “Unfractionated BM” (12-15 million per flask); “FACS sorted CD34^neg cells” (12-15 million per flask); “FACS sorted CD34^pos cells” (2-3 million per flask); or “FACS sorted, unirradiated CD34^pos cells plus irradiated (3,000 cGy) CD34^neg cells.” Labels above bars indicate fold numeric expansion during the 6 day culture. […] (Not done=group not done);
We cultured fresh mouse BM in two stages, a 6-7 day proliferative phase (Step 1) and a 2-3 day post-proliferative phase (Step 2). […] FACS sorting experiments confirmed that such expansion represented a net 35-80 fold proliferation of the minor (<12%) CD34^pos stem cell subpopulation, with rapid dropout of the initially CD34^neg subpopulation (FIG. 10). Stem cell proliferation persisted well past day 7 if medium and factors were adequately replenished (not shown).
Single cell suspensions were prepared from the femurs and tibias of healthy mice (Kuriyama, H. et al. Dev. Biol. (Basel) 116, 169-178 (2004)). Following RBC lysis by ammonium chloride, no further processing was performed. […] BM cells were normally cultured for 6-7 days, harvested, counted, and washed twice in PBS prior to initiation of Step 2 cultures.

The subject of experiment [3] is CD11c^pos cells and CD34^pos cells. Description: In vivo cytokine treatment for six days: spleen and BM CD11c^pos and CD34^pos cells. The following applies: with rhFlt3-L 10 mcg i.p. daily. Also on record: species or system BALB/c mice.
Excerpt: FIGS. 15A-D are a series of graphs showing BALB/c mice treated for six days with either (A) nothing, (B) rhFlt3-L 10 mcg i.p. daily, (C) rhIL-6 mcg i.p. three times daily, and (D) rhFlt3-L 10 mcg i.p. daily plus rhIL-6 50 mcg i.p. three times daily. The next day mice were euthanized, spleens and BM harvested, and CD11c^pos cells (committed DC lineage) and CD34^pos cells (stem cells, potential DC precursors) quantified. Results are representative of four experiments. […] This is representative of four experiments;
FIGS. 16A-D are a series of graphs showing BALB/c mice treated for six days with either (A) nothing, (B) rhFlt3-L 10 mcg i.p. daily, (C) rhFlt3-L 10 mcg i.p. daily plus rhIL-6 50 mcg i.p. three times daily, (D) rhFlt3-L 10 mcg i.p. daily plus rhIL-6 50 mcg i.p. once daily, (E) rhFlt3-L 10 mcg i.p. daily plus rhIL-6 10 mcg i.p. three times daily, and (F) rhFlt3-L 10 mcg i.p. daily plus rhIL-6 10 mcg i.p. once times daily. The next day mice were euthanized, spleens and BM harvested, and CD11c^pos cells (committed DC lineage) and CD34^pos cells (stem cells, potential DC precursors) quantified. Results are representative of three experiments.
The next experiment deals with BM cells. Briefly: Step 2 culture: spontaneous DC maturation without exogenous maturation stimuli. The following applies: after Flt3L or Flt3L+IL6 conditioning. It is filed as cell-based, mouse.
Excerpt: DC differentiation typically arrests at the immature stage unless DCs are exposed to additional signals such as CD40 ligation, calcium ionophore or TLR agonists (Xu, S. et al. J. Immunol. 171, 2251-2261 (2003); Bonifaz, L. et al. J. Exp. Med. 196, 1627-1638 (2002); Napolitani, G. et al. Nat. Immunol. 6, 769-776 (2005); Czerniecki, B J et al. J. Immunol. 159, 3823-3837 (1997); Mailliard, R B et al. Cancer Res. 64, 5934-5937 (2004)). […] Instead, uniform upregulation of MHC Class II and CD11c ensued within hours of transfer from Flt3L+IL6 into GMCSF, followed by upregulation of CD40, co-stimulatory molecules and CCR7 between 48 and 72 hours of Step 2 culture.
as §1

For the next experiment, the system named is conditioned BM cells. Description: Tumor contact during Step 2 culture: DC maturation and IL12 production. The experiment is classed as cell-based, mouse. The method, then: Because DC ingestion of cellular material can induce tolerogenic DCs (Bonifaz, L. et al. J. Exp. Med. 196, 1627-1638 (2002)), we tested the impact of exposing DCs to large volumes of tumor at 16-24 hours of Step 2 culture in GMCSF, to determine tumor's impact on subsequent spontaneous maturation. To cluster plate wells each containing 4 million conditioned BM cells, we added either 4 million freeze-thawed (killed) tumor cells; 3 million irradiated (10,000 cGy), trypan-excluding tumor cells; or 2 million unirradiated, actively proliferating tumor cells. Given the much larger dimensions of viable tumor cells compared to the cultured BM cells, these represented voluminous tumor challenges.
as §1

Procedure for L-selectin^low T cells: Step 2 DC cultures were performed in rGMCSF and rIL-4 with irradiated MCA-203 cells added at 24 hr and CpG+LPS added at 44 hr. Four hours later, DCs were harvested for co-culture with L-selectin^low T cells freshly harvested from MCA-203 tumor-bearing mice. T cells were co-cultured with DCs at an 8:1 ratio or were activated with immobilized anti-CD3. […] Cultures shown also received exogenous IL-2, IL-7 and IL-15.
Cultures shown also received exogenous IL2, IL7 and IL15.
Conditioned DC precursors were transferred to Step 2 culture, exposed to viable irradiated tumor, optionally further activated with CpG+LPS, then co-cultured with tolerized TDLN T cells from mice bearing the relevant tumor.
Prior to harvest of T cells from tumor-bearing mice, DCs were prepared under various Step 1 conditions in CM; Step 2 was performed in 1% non heat-deactivated mouse serum instead of FCS (CM-MS), during which BM cultures were exposed to viable irradiated tumor cells, then CpG+LPS as denoted in Results. On the day of DC harvest, T cells were freshly harvested from the tumor-draining lymph nodes of mice bearing 12 day tumors. The L-selectin^low (tolerized pre-effector) fraction of T cells was isolated by negative selection as described previously (Peng, L. et al. J. Immunol. 165, 5738-5749 (2000); Wang, L. et al. J. Translational Med. 2, 41 (2004)), and cultured in CM-MS with immobilized anti-CD3 (Peng, L. et al. J. Immunol. 165, 5738-5749 (2000); Wang, L. et al. J. Translational Med. 2, 41 (2004)) or variously conditioned DCs. Beginning on day 2 of T cell culture, some groups also received rhIL2 (24 I.U./m1), or rhIL2, rhIL7 (50 ng/ml) and rhIL15 (5 ng/ml). T cells were harvested for assays and adoptive therapy after 12 days of culture.

For `CCCCC[C@H](O)/C=C/[C@H]1[C@H](O)CC(=O)[C@@H]1C/C=C\CCCC(=O)O` [PGE2, prostaglandin E2, reference compound], the “impact upon DC1 polarization (phenotypic maturation, IL12)” value (shortened to “impact upon DC1 polarization”) in experiment [1] is given as “substantially inhibited”. For the molecule IL15, in the experiment on L-selectin^low T cells, the “rescue of DC toxicity to T cells by exogenous cytokine” value is recorded as “could not be rescued”.

As for “TGFI31: immunosuppressive factor, recombinant human TGFβ1”, in experiment [1], the “impact upon DC1 polarization” value is “paradoxically enhanced both phenotypic maturation and IL12 secretion”.

Turning to VEGF, in experiment [1], the “impact upon DC1 polarization” value is given as “negligible impacts”.

Consider fibronectin, for which the superimposed proliferative impacts entry in experiment [2] is “negligible superimposed proliferative impacts”. Regarding rhIL6: recombinant human interleukin-6, in experiment [3], the “10 mcg versus 50 mcg dosing” value is “as effective as 50 mcg dosing” and the “thrice daily versus once daily administration” value was “more effective than once daily”. In addition, the “effectiveness as alternative Step 1 factor” value in experiment [2] was “also effective”.

B1: rSCF: recombinant stem cell factor, alternative to mSCF (protein, UniProt P20826 26-190, looked up)
Soluble KIT ligand: KEICGNPVTDNVKDITKLVANLPNDYMITLNYVAGMDVLPSHCWLRDMVIQLSLSLTTLLDKFSNISEGLSNYSIIDKLGKIVDDLVLCMEENAPKNIKESPKRPETRSFTPEEFFSIFNRSIDAFKDFMVASDTSDCVLSSTLGPEKDSRVSVTKPFMLPPVAA
B1: the “effectiveness as alternative Step 1 factor” value in experiment [2] is on record as “also effective”.

B2: IL4: recombinant mouse IL4 (protein, UniProt P07750 21-140, looked up)
Interleukin-4: HIHGCDKNHLREIIGILNEVTGEGTPCTEMDVPNVLTATKNTTESELVCRASKVLRIFYLKHGKTPCLKKNSSVLMELQRLFRAFRCLDSSISCTMNESKSTSLKDFLESLKSIMQMDYS
On to B2, for which the “spontaneous DC maturation with exogenous IL4 in Step 2” value with BM cells was “even more robust”.

B3: IL10: immunosuppressive factor, recombinant mouse IL10 (protein, UniProt P18893 19-178, looked up)
Interleukin-10: SRGQYSREDNNCTHFPVGQSHMLLELRTAFSQVKTFFQTKDQLDNILLTDSLMQDFKGYLGCQALSEMIQFYLVEVMPQAEKHGPEIKEHLNSLGEKLKTLRMRLRRCHRFLPCENKSKAVEQVKSDFNKLQDQGVYKAMNEFDIFINCIEAYMMIKMKS
Take B3: the “impact upon DC1 polarization” value in experiment [1] was “negligible impacts”.

B4: IL7 (protein, UniProt P13232 26-177, looked up)
Interleukin-7: DCDIEGKDGKQYESVLMVSIDQLLDSMKEIGSNCLNNEFNFFKRHICDANKEGMFLFRAARKLRQFLKMNSTGDFDLHLLKVSEGTTILLNCTGQVKGRKPAALGEAQPTKSLEENKSLKEQKKLNDLCFLKRLLQEIKTCWNKILMGTKEH
For the molecule B4, the “rescue of DC toxicity to T cells by exogenous cytokine” value with L-selectin^low T cells is listed as “could not be rescued”.

B5: IFNγ: recombinant mouse interferon gamma (protein, UniProt P01580 23-155, looked up)
Interferon gamma: HGTVIESLESLNNYFNSSGIDVEEKSLFLDIWRNWQKDGDMKILQSQIISFYLRLFEVLKDNQAISNNISVIESHLITTFFSNSKAKKDAFMSIAKFEVNNPQVQRQAFNELIRVVHQLLPESSLRKRKRSRC
As for B5, the IL12 production result in the experiment on conditioned BM cells (IFNγ treatment alone) is listed as “Neither tumor nor IFNγ treatment alone induced IL12 production”. Moreover, in the experiment with conditioned BM cells (tumor exposure combined with IFNγ, Flt3L+IL6 conditioned), the “IL12 (p70) production” value is reported as “could induce IL12 (p70) production”.

B6: thrombopoeitin: recombinant murine thrombopoeitin (protein, UniProt P40226 22-356, looked up)
Thrombopoietin: SPVAPACDPRLLNKLLRDSHLLHSRLSQCPDVDPLSIPVLLPAVDFSLGEWKTQTEQSKAQDILGAVSLLLEGVMAARGQLEPSCLSSLLGQLSGQVRLLLGALQGLLGTQLPLQGRTTAHKDPNALFLSLQQLLRGKVRFLLLVEGPTLCVRRTLPTTAVPSSTSQLLTLNKFPNRTSGLLETNFSVTARTAGPGLLSRLQGFRVKITPGQLNQTSRSPVQISGYLNRTHGPVNGTHGLFAGTSLQTLEASDISPGAFNKGSLAFNLQGGLPPSPSLAPDGHTPFPPSPALPTTHGSPPQLHPLFPDPSTTMPNSTAPHPVTMYPHPRNLSQET
For B6, the superimposed proliferative impacts entry in experiment [2] was “negligible superimposed proliferative impacts”.
